As usually defined, the IC50 is the concentration needed to halve the response being measured. Low readings indicate greater potency in that assay, high ones weaker potency in that assay.

This assay concerns the target LSD-1 enzyme (Homo sapiens (Human), UniProt O60341). The assay is described as follows: LANCE LSD1/KDM1A demethylase assay (LSD1 histone demethylase biochemical assay). As for the experimental part:
Example A: LSD1 Histone Demethylase Biochemical Assay
LANCE LSD1/KDM1A demethylase assay—10 μL of 1 nM LSD-1 enzyme (ENZO BML-SE544-0050) in the assay buffer (50 mM Tris, pH 7.5, 0.01% Tween-20, 25 mM NaCl, 5 mM DTT) were preincubated for 1 hour at 25° C. with 0.8 μL compound/DMSO dotted in black 384 well polystyrene plates. […] Reactions were stopped by addition of 10 μL 1× LANCE Detection Buffer (PerkinElmer CR97-100) supplemented with 1.5 nM Eu-anti-unmodified H3K4 Antibody (PerkinElmer TRF0404), and 225 nM LANCE Ultra Streptavidin (PerkinElmer TRF102) along with 0.9 mM Tranylcypromine-HCl (Millipore 616431). After stopping the reactions plates were incubated for 30 minutes and read on a PHERAstar FS plate reader (BMG Labtech).
Consider `CN1CCC[C@@H](COc2nc(-c3ccc(C#N)cc3)c(-c3ccc(CN4CCOCC4)cc3F)n3ccnc23)C1` [Example 89, 4-(5-[2-fluoro-4-(morpholin-4-ylmethyl)phenyl]-8-{[(3R)-1-methylpiperidin-3-yl]methoxy}imidazo[1,2-a]pyrazin-6-yl)benzonitrile], for which the IC50 lay within 50 to 500 nM. `Cn1c(=O)oc2cc(-c3c(-c4ccc(C#N)cc4)nc(OC[C@@H]4CCCN(CCC#N)C4)c4nccn34)ccc21` [Example 64, 4-[8-{[(3R)-1-(2-cyanoethyl)piperidin-3-yl]methoxy}-5-(3-methyl-2-oxo-2,3-dihydro-1,3-benzoxazol-6-yl)imidazo[1,2-a]pyrazin-6-yl]benzonitrile] displayed an IC50 of 50 to 500 nM. Compound `CN1CCC[C@@H](COc2nc(-c3ccc(C#N)cc3)c(-c3ccc(N(C)C)nc3)n3ccnc23)C1` [Example 51, 4-(5-[6-(dimethylamino)pyridin-3-yl]-8-{[(3R)-1-methylpiperidin-3-yl]methoxy}imidazo[1,2-a]pyrazin-6-yl)benzonitrile] displayed an IC50 of 50 to 500 nM.

Consider `COc1ncc(-c2c(-c3ccc(C#N)cc3)nc(OC[C@@H]3CCCN(C)C3)c3nccn23)cc1F` [Example 84, 4-(5-(5-fluoro-6-methoxypyridin-3-yl)-8-{[(3R)-1-methylpiperidin-3-yl]methoxy}imidazo[1,2-a]pyrazin-6-yl)benzonitrile], for which the IC50 lay in the range of 50 to 500 nM. Take `COc1cc(-c2c(-c3ccc(C#N)cc3)nc(N3CCC(N(C)C)CC3)c3nccn23)cnc1C` [Example 116, 4-[8-[4-(dimethylamino)piperidin-1-yl]-5-(5-methoxy-6-methylpyridin-3-yl)imidazo[1,2-a]pyrazin-6-yl]benzonitrile]: the IC50 was 50 to 500 nM. `CN1CCC[C@@H](COc2nc(-c3ccc(C#N)cc3)c(-c3ccc(CN4CCOCC4)c(F)c3)n3ccnc23)C1` [Example 82, 4-(5-[3-fluoro-4-(morpholin-4-ylmethyl)phenyl]-8-{[(3R)-1-methylpiperidin-3-yl]methoxy}imidazo[1,2-a]pyrazin-6-yl)benzonitrile] came in with an IC50 of 50 to 500 nM. For `CN1CCC[C@@H](COc2nc(-c3ccc(C#N)cc3)c(-c3ccc4c(c3)OCC(=O)N4C)n3ccnc23)C1` [Example 49, 4-(5-(4-methyl-3-oxo-3,4-dihydro-2H-1,4-benzoxazin-7-yl)-8-{[(3R)-1-methylpiperidin-3-yl]methoxy}imidazo[1,2-a]pyrazin-6-yl)benzonitrile], the half-inhibitory concentration (IC50) is 50 to 500 nM. To `COC(=O)N(C)c1ccc(-c2c(-c3ccc(C#N)cc3)nc(OC[C@@H]3CCCN(C)C3)c3nccn23)cc1` [Example 77] belongs 50 to 500 nM. The compound `CCN1CCC[C@@H](COc2nc(-c3ccc(C#N)cc3)c(-c3cnc4c(ccn4C)c3)n3ccnc23)C1` [Example 61, 4-[8-{[(3R)-1-ethylpiperidin-3-yl]methoxy}-5-(1-methyl-1H-pyrrolo[2,3-b]pyridin-5-yl)imidazo[1,2-a]pyrazin-6-yl]benzonitrile] had an IC50 of 50 to 500 nM.

The compound `Cc1ccc(-c2cn3c(-c4ccc(C)cc4)c(-c4ccc(C#N)cc4)nc(OC[C@@H]4CCNC4)c3n2)cc1` [Example 35, 4-{2,5-bis(4-methylphenyl)-8-[(3R)-pyrrolidin-3-ylmethoxy]imidazo[1,2-a]pyrazin-6-yl}benzonitrile] displayed an IC50 of 50 to 500 nM.

As to `Cc1cc(-c2c(-c3ccc(C#N)cc3)nc(OC[C@@H]3CCCN(C)C3)c3nccn23)ccc1C(C)O` (stereo partly drawn) [Example 86, 4-(5-[4-(1-hydroxyethyl)-3-methylphenyl]-8-{[(3R)-1-methylpiperidin-3-yl]methoxy}imidazo[1,2-a]pyrazin-6-yl)benzonitrile], the IC50 was in the range of 50 to 500 nM.

Take `Cc1ccc(-c2c(-c3ccc(C#N)cc3)nc(CO[C@@H]3CCNC3)c3nccn23)cc1` [Example 3, 4-(5-(4-methylphenyl)-8-{[(3R)-pyrrolidin-3-yloxy]methyl}imidazo[1,2-a]pyrazin-6-yl)benzonitrile]: the IC50 fell in the range of 50 to 500 nM. On to `CCN1CCC[C@@H](COc2nc(-c3ccc(C#N)cc3)c(-c3ccc4c(c3)oc(=O)n4C)n3ccnc23)C1` [Example 63, 4-[8-{[(3R)-1-ethylpiperidin-3-yl]methoxy}-5-(3-methyl-2-oxo-2,3-dihydro-1,3-benzoxazol-6-yl)imidazo[1,2-a]pyrazin-6-yl]benzonitrile], for which the IC50 was 50 to 500 nM. The figure for `N#Cc1ccc(-c2nc(OC[C@@H]3CCNC3)c3nccn3c2-c2ccc(C(F)(F)F)cc2)cc1` [Example 28, 4-{8-[(3R)-pyrrolidin-3-ylmethoxy]-5-[4-(trifluoromethyl)phenyl]imidazo[1,2-a]pyrazin-6-yl}benzonitrile] is 50 to 500 nM. The figure for `N#Cc1ccc(-c2nc(OC[C@@H]3CCNC3)c3nccn3c2-c2ccccc2)cc1` [Example 26, 4-{(5-phenyl)-8-[(3R)-pyrrolidin-3-ylmethoxy]imidazo[1,2-a]pyrazin-6-yl}benzonitrile] is 50 to 500 nM.

(Values after US9695180B2 (Incyte Corporation, priority 2014, dated 2017).)
